Data reported in ChEMBL document CHEMBL1147519, “N-[18F]fluoroethylpiperidin-4-ylmethyl butyrate: a novel radiotracer for quantifying brain butyrylcholinesterase activity by positron emission tomography” (Bioorg Med Chem Lett, 2004).

Experiments:
[1] = Partition coefficient (logD); format: physicochemical; conditions: octanol/water
Homo sapiens = species: Homo sapiens; test: The estimated hydrolysis rate in the human cerebral cortex; format: functional
[2] = Partition coefficient (logD) (octanol/phosphate buffer); format: physicochemical
[3] = biological target: Cholinesterase (Homo sapiens) (UniProt P06276); test: Specificity to butyrylcholinesterase
Sequence of Cholinesterase (Homo sapiens) (P06276 whole entry): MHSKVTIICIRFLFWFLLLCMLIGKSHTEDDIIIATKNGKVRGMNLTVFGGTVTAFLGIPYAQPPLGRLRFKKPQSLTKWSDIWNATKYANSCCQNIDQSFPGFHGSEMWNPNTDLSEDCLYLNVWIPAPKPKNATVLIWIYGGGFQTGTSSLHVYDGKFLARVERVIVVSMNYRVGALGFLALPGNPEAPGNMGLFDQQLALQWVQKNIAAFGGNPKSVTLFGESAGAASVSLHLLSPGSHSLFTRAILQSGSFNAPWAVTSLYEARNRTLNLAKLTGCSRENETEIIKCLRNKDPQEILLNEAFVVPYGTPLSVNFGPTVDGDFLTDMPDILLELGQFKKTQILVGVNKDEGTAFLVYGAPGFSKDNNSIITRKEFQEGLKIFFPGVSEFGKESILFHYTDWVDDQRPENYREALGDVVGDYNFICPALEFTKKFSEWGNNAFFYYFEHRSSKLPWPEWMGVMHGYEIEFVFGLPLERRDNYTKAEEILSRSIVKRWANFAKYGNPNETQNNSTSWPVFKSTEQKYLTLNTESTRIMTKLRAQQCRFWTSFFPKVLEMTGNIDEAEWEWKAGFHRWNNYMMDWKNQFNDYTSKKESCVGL

Q: With `CC(=O)OC1CCN(C)CC1` as the molecule, how does the logD [1] read?
A: -0.3

Q: What about the Total rate (Homo sapiens) of the same molecule?
A: 0.16 g⁻¹ min⁻¹ mL⁻¹

Q: What about the logD [2] of the same molecule?
A: -2.2

Q: What does the source list for `CCC(=O)OC1CCN(C)CC1`?
A: logD [1]: -0.22; Total rate (Homo sapiens): 0.035 g⁻¹ min⁻¹ mL⁻¹; logD [2]: -2.2

Q: Which results are given for `CCCC(=O)OC1CCN(C)CC1`?
A: logD [1]: 0.21; Specificity [3]: 98%; Total rate (Homo sapiens): 0.033 g⁻¹ min⁻¹ mL⁻¹; logD [2]: -2.2

Q: Which logD [1] does the source give for `CCCC(=O)OCC1CCN(CCF)CC1` here?
A: 0.62

Q: What about the Specificity [3] of the same molecule?
A: 98%

Q: And the Total rate (Homo sapiens)?
A: 0.2 g⁻¹ min⁻¹ mL⁻¹

Q: And the logD [2]?
A: -1.3
